Literature values in patent US20200289431A1 (priority 2019, published 2020).

Assays:
[1] = in vivo
cannabinoid CB2 receptor = cannabinoid CB2 receptor (Homo sapiens, UniProt P34972)
cannabinoid CB2 receptor, sequence (P34972 whole entry): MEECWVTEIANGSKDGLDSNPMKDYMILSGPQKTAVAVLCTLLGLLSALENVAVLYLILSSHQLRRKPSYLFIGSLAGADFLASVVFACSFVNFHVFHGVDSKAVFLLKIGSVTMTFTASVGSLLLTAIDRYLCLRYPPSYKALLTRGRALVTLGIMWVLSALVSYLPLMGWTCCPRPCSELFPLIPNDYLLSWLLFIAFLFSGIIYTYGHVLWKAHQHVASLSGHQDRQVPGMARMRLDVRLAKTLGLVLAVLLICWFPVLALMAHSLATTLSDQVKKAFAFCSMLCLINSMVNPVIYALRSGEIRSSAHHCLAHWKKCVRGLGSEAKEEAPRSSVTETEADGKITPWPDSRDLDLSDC

In the case of C=C(C)[C@@H]1CCC(C)=C[C@H]1c1c(O)cc(CCCCC)cc1O [Cannabidiol], the elimination half-life [1] is given as 18 to 32 h and the “affinity for the cannabinoid CB2 receptor” value (cannabinoid CB2 receptor) is given as “very low affinity”.
